Consider 30 compounds from patent US20100317850A1 (priority 2008, published 2010).

The subject of this assay is Aβ42 production. Nature of the assay: Quantification of Aβ peptide in culture of neurons from rat fetus brain (Aβ ELISA). The assay is classed as cell-based. The conditions noted are these: Neuron, 72 h; rat primary neuronal culture (cerebral cortex, embryonic day 18 Wistar rats); medium collected three days after addition of the compound; Aβx-42 ELISA; read-out: Aβ42 production reducing effect IC50. In a few lines: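 Primary cortical neurons from embryonic day 18 Wistar rats were cultured 4 days, then exposed to compound in Neurobasal/B27 without 2-ME, final DMSO ≤1%. After three days, medium was collected and Aβx-42 measured undiluted by sandwich ELISA.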
In general terms: In an ELISA, binding on a coated surface is turned into a signal by an enzyme label.

As usually defined, the pIC50 is the IC50 on a negative log10 scale, so that one unit is a factor of ten.

pIC50: −log10 of the molar value.

For `CC[C@H]1OC[C@]2(c3cc(NC(=O)c4ccc(Cl)cn4)ccc3F)N=C(N)SC[C@H]12` (relative stereo) [Example 51, N-[3-((4aS*,5R*,7aS*)-2-amino-5-ethyl-4a,5-dihydro-4H-furo[3,4-d][1,3]thiazin-7a-yl)-4-fluorophenyl]-5-chloropyridine-2-carboxamide], the pIC50 was 8.80.

Take `COc1ccc(C(=O)Nc2ccc(F)c([C@]34CCC[C@H]3CSC(N)=N4)c2)nc1` (single isomer, unassigned) [Example 174, N-[3-((4aR*,7aS*)-2-amino-4a,5,6,7-tetrahydro-4H-cyclopenta[d][1,3]thiazin-7a-yl)-4-fluorophenyl]-5-methoxypyridine-2-carboxamide]: the pIC50 was 7.96. Turning to `CCCCO[C@H]1C[C@H]2CSC(N)=N[C@@]2(c2cc(NC(=O)c3ccc(C#N)cn3)ccc2F)C1` (relative stereo) [Example 109, (+)-N-[3-((4aR*,6S*,7aS*)-2-amino-6-butoxy-4a,5,6,7-tetrahydro-4H-cyclopenta[d][1,3]thiazin-7a-yl)-4-fluorophenyl]-5-cyanopyridine-2-carboxamide], the pIC50 is 8.74. Under `N#Cc1ccc(C(=O)Nc2ccc(F)c([C@]34CC(F)(F)C[C@H]3CSC(N)=N4)c2)nc1` (relative stereo) [Example 94, (+)-N-[3-((4aR*,7aS*)-2-amino-6,6-difluoro-4a,5,6,7-tetrahydro-4H-cyclopenta[d][1,3]thiazin-7a-yl)-4-fluorophenyl]-5-cyanopyridine-2-carboxamide] stands 8.70; under `COc1cnc(C(=O)Nc2ccc(F)c([C@]34CCC[C@H]3CSC(N)=N4)c2)cn1` (single isomer, unassigned) [Example 177, N-[3-((4aR*,7aS*)-2-amino-4a,5,6,7-tetrahydro-4H-cyclopenta[d][1,3]thiazin-7a-yl)-4-fluorophenyl]-5-methoxypyrazine-2-carboxamide], 7.74.

In the case of `Cc1ccc(C(=O)Nc2ccc(F)c([C@]34CCCC[C@H]3CSC(N)=N4)c2)nc1` [Example 225], the pIC50 is 6.70.

`NC1=N[C@@]2(c3cc(NC(=O)c4ncccc4Br)ccc3F)CCC[C@H]2CS1` (single isomer, unassigned) [Example 173, N-[3-((4aR*,7aS*)-2-amino-4a,5,6,7-tetrahydro-4H-cyclopenta[d][1,3]thiazin-7a-yl)-4-fluorophenyl]-3-bromopyridine-2-carboxamide]: the pIC50 was 7.14. Consider `COC[C@H]1C[C@]2(c3cc(NC(=O)c4ccc(C#N)cn4)ccc3F)N=C(N)SC[C@@H]2CO1` [Example 39, N-[3-((4aS,7R,8aS)-2-amino-7-methoxymethyl-4a,5,7,8-tetrahydro-4H-6-oxa-3-thia-1-azanaphthalen-8a-yl)-4-fluorophenyl]-5-cyanopyridine-2-carboxamide], for which the pIC50 was 8.15. For `NC1=N[C@@]2(c3cc(NC(=O)c4cnc(OCF)cn4)ccc3F)C[C@H](CF)OC[C@H]2CS1` [Example 41, N-[3-((4aS,7R,8aS)-2-amino-7-fluoromethyl-4a,5,7,8-tetrahydro-4H-6-oxa-3-thia-1-azanaphthalen-8a-yl)-4-fluorophenyl]-5-fluoromethoxypyrazine-2-carboxamide], the pIC50 was 8.22.

Regarding `Cc1cc(Cl)ccc1C(=O)Nc1ccc(F)c([C@]23CCC[C@H]2CSC(N)=N3)c1` [Example 197], the pIC50 is 6.66.

As for `NC1=N[C@@]2(c3cc(NC(=O)c4ncccc4Br)ccc3F)CCCCC[C@H]2CS1` [Example 253], the pIC50 is 6.77. The value for `CO[C@H]1CC[C@]2(c3cc(NC(=O)c4ccc(C#N)cn4)ccc3F)N=C(N)SC[C@H]12` (relative stereo) [Example 63, N-[3-((4aS*,5S*,7aS*)-2-amino-5-methoxy-4a,5,6,7-tetrahydro-4H-cyclopenta[d][1,3]thiazin-7a-yl)-4-fluorophenyl]-5-cyanopyridine-2-carboxamide] was 7.96; that for `Cc1cnc(C(=O)Nc2ccc(F)c([C@]34CCCC[C@H]3CSC(N)=N4)c2)cn1` [Example 117] was 6.80. `NC1=N[C@@]2(c3cccc(-c4cccnc4F)c3)CN(c3ccc(F)cc3)C[C@H]2CS1` (racemic) [Example 226, (±)-(4aR*,7aS*)-6-(4-fluorophenyl)-7a-[3-(2-fluoropyridin-3-yl)phenyl]-4,4a,5,6,7,7a-hexahydropyrrolo[3,4-d][1,3]thiazin-2-ylamine]: the pIC50 was 6.63. With `NC1=N[C@@]2(c3cc(NC(=O)c4ccc(OCc5ccccc5)cn4)ccc3F)CCC[C@H]2CS1` [Example 196], the pIC50 is 6.01. For `NC1=N[C@@]2(c3cc(NC(=O)c4nc5ccccc5s4)ccc3F)CCCC[C@H]2CS1` [Example 223], the pIC50 was 6.50. Consider `NC1=N[C@@]2(c3cc(NC(=O)c4ccc(OC(F)F)cn4)ccc3F)COC[C@H]2CS1` (relative stereo) [Example 167, N-[3-((4aS*,7aS*)-2-amino-4a,5-dihydro-4H-furo[3,4-d][1,3]thiazin-7a-yl)-4-fluorophenyl]-5-difluoromethoxypyridine-2-carboxamide], for which the pIC50 is 8.22. With `NC1=N[C@@]2(c3cc(NC(=O)c4ncc(Br)cn4)ccc3F)CCCC[C@H]2CS1` [Example 120], the pIC50 is 7.42. Regarding `Cc1cnc(C(=O)Nc2ccc(F)c([C@]34CCC[C@H]3CSC(N)=N4)c2)cn1` [Example 195], the pIC50 is 7.17. As for `NC1=N[C@@]2(c3cc(NC(=O)c4ccc(C(F)(F)F)cn4)ccc3F)CCC[C@H]2CS1` (single isomer, unassigned) [Example 169, N-[3-((4aR*,7aS*)-2-amino-4a,5,6,7-tetrahydro-4H-cyclopenta[d][1,3]thiazin-7a-yl)-4-fluorophenyl]-5-trifluoromethylpyridine-2-carboxamide], the pIC50 was 7.57. In the case of `CO[C@@H]1CC[C@]2(c3cc(NC(=O)c4ccc(C#N)cn4)ccc3F)N=C(N)SC[C@H]12` (relative stereo) [Example 65, N-[3-((4aS*,5R*,7aS*)-2-amino-5-methoxy-4a,5,6,7-tetrahydro-4H-cyclopenta[d][1,3]thiazin-7a-yl)-4-fluorophenyl]-5-cyanopyridine-2-carboxamide], the pIC50 was 7.42.

On to `NC1=N[C@@]2(c3cc(NC(=O)c4ncc(Cl)cc4Cl)ccc3F)CCCC[C@H]2CS1` (single isomer, unassigned) [Example 257, N-[3-((4aR*,8aS*)-2-amino-4,4a,5,6,7,8-hexahydrobenzo[d][1,3]thiazin-8a-yl)-4-fluorophenyl]-3,5-dichloropyridine-2-carboxamide], for which the pIC50 was 7.77. Take `COC[C@H]1OC[C@]2(c3cc(NC(=O)c4cnc(OC(F)F)cn4)ccc3F)N=C(N)SC[C@H]12` [Example 67, N-[3-((4aS,5S,7aS)-2-amino-5-methoxymethyl-4a,5-dihydro-4H-furo[3,4-d][1,3]thiazin-7a-yl)-4-fluorophenyl]-5-difluoromethoxy-pyrazine-2-carboxamide]: the pIC50 is 8.85. On to `CO[C@H]1C[C@H]2CSC(N)=N[C@@]2(c2cc(-c3cccnc3F)ccc2F)C1` (relative stereo) [Example 243, (±)-(4aR*,6S*,7aS*)-7a-[2-Fluoro-5-(2-fluoro-pyridin-3-yl)phenyl-6-methoxy-4,4a,5,6,7,7a-hexahydrocyclopenta[d][1,3]thiazin-2-ylamine], for which the pIC50 is 7.16. Consider `NC1=N[C@@]2(c3cc(NC(=O)c4ccc(C(F)(F)F)cn4)ccc3F)CCCC[C@H]2CS1` (single isomer, unassigned) [Example 106, N-[3-((4aR*,8aS*)-2-amino-4,4a,5,6,7,8-hexahydrobenzo[d][1,3]thiazin-8a-yl)-4-fluorophenyl]-5-trifluoromethylpyridine-2-carboxamide], for which the pIC50 is 7.06. As for `CO[C@@H]1C[C@H]2CSC(N)=N[C@@]2(c2cc(NC(=O)c3ccc(OC(F)F)cn3)ccc2F)C1` (relative stereo) [Example 100, (+)-N-[3-((4aR*,6R*,7aS*)-2-amino-6-methoxy-4a,5,6,7-tetrahydro-4H-cyclopenta[d][1,3]thiazin-7a-yl)-4-fluorophenyl]-5-difluoromethoxypyridine-2-carb oxamide], the pIC50 is 8.70. `COC[C@H]1C[C@]2(c3cc(NC(=O)c4cnc(OCF)cn4)ccc3F)N=C(N)SC[C@@H]2CO1` [Example 38, N-[3-((4aS,7R,8aS)-2-amino-7-methoxymethyl-4a,5,7,8-tetrahydro-4H-6-oxa-3-thia-1-azanaphthalen-8a-yl)-4-fluorophenyl]-5-fluoromethoxypyrazine-2-carboxamide]: the pIC50 was 8.22. Regarding `N#Cc1cccc(-c2cccc([C@]34CN(c5cnccn5)C[C@H]3CSC(N)=N4)c2)c1` (racemic) [Example 229, (±)-3′44aR*,7aS*)-2-amino-6-pyrazin-2-yl-4a,5,6,7-tetrahydro-4H-pyrrolo[3,4-d][1,3]thiazin-7a-yl)biphenyl-3-carbonitrile], the pIC50 was 6.26. Regarding `NC1=N[C@@]2(c3cc(NC(=O)c4ccc(Br)cn4)ccc3F)CCC[C@H]2CS1` (single isomer, unassigned) [Example 172, N-[3-((4aR*,7aS*)-2-amino-4a,5,6,7-tetrahydro-4H-cyclopenta[d][1,3]thiazin-7a-yl)-4-fluorophenyl]-5-bromopyridine-2-carboxamide], the pIC50 is 8.15.

On to `NC1=N[C@@]2(c3cc(NC(=O)c4cnc(OCF)cn4)ccc3F)CCOC[C@H]2CS1` (relative stereo) [Example 80, N-[3-((4aS*,8aS*)-2-amino-4a,5,7,8-tetrahydro-4H-6-oxa-3-thia-1-azanaphthalen-8a-yl)-4-fluorophenyl]-5-fluoromethoxypyrazine-2-carboxamide], for which the pIC50 was 8.10.
